Where two headings read alike, the source gives them in different places.
Test system: PC-3 prostate cancer cells
Test: PC3 Cell Viability and Proliferation Assay
Assay type: cell-based
Conditions: MTS, mean of three independent experiments, read-out: PC3 GI50 D3
Procedure: PC-3 prostate cancer cells were obtained from ATCC, and maintained in F-12K medium containing 7% FBS and 1% penicillin/streptomycin. Cells were incubated at 37° C. in a humidified atmosphere containing 5% CO2.
Cell viability was assayed using the MTS technique in 96-well culture plates (CellTiter 96® Aqueous Non-Radioactive Cell Proliferation Assay, Promega) according to the manufacturer's instructions. MTS (3-(4,5-dimethyl-thiazol-2-yl)-5-(3-carboxymethoxyphenyl)-2-(4-sulfophenyl)-2H-tetrazolium) is a MTT-derived tetrazolium that is reduced in metabolically active cells into a soluble, cell-permeant formazan. The amount of formazan, detected by its absorbance at 492 nm is proportional to the number of living, metabolically active cells.
2×10^3 PC3 cells were seeded per well. 24 hours later, the medium was changed and the cells treated in triplicate with the following concentrations of each compound: 10 μM-3.33 μM-1.11 μM-370 nM-123 nM-41 nM-14 nM and 5 nM. The compounds were diluted in 100% DMSO, whose final concentration on cells was kept at 0.5%.
Cells were incubated with the compounds for 72 hours, and their viability then assayed by the addition of MTS for 2 hours. Absorbance at 492 nm was measured directly from the 96-well culture plates. GI50 (Growth Inhibition 50) concentrations for each compound were calculated using a sigmoidal variable slope fit (Prism 4.0, Graphpad Softwares). Values represent mean of three independent experiments.

Row | GI50 (72 hours) [µM] | GI50 (Homo sapiens, PC-3, 72 hours) [µM] | Compound
1 | 0.994 | – | 6-(7)-Chloro-1-methyl-2,3,4,10,10a-pentaaza-cyclopenta[b]fluoren-9-one [Example 3/A]
2 | – | > 10 | Nc1nnc2nc3c(nn12)C(=O)c1ccccc1-3 [Example 1c/A, 1-Amino-2,3,4,10,10a-pentaaza-cyclopenta[b]fluoren-9-one]
3 | – | > 10 | Cn1nc2nc3c(nc2n1)-c1ccccc1C3=O [Example 4a, 2-Methyl-2H-1,2,3,4,10-pentaaza-cyclopenta[b]fluoren-9-one]
4 | – | > 10 | O=C1c2ccccc2-c2nc3nn(Cc4ccccc4)nc3nc21 [Example 4b, 2-Benzyl-2H-1,2,3,4,10-pentaaza-cyclopenta[b]fluoren-9-one]

— patent US7462615B2, “Inhibitors of cysteine proteases, the pharmaceutical compositions thereof and their therapeutic applications” (Hybrigenics SA, priority 2005, dated 2008)
